Reference: ChEMBL document CHEMBL1146440, “Brasilidine A, a new cytotoxic isonitrile-containing indole alkaloid from the actinomycete Nocardia brasiliensis” (J Nat Prod, 1997)
Converted amounts (≈) assume the structure as drawn.

Columns and labels:
L1210 = assay: Cytotoxicity against mouse L1210 cells; type: functional, cell-based
P388 [1] = assay: Cytotoxicity against mouse P388 cells; type: functional, cell-based
P388 [2] = assay: Cytotoxicity against mouse Adriamycin-resistant P388 cells; type: functional, cell-based
CHO [3] = assay: Cytotoxicity against CHO cells; type: cell-based, Cavia porcellus; settings: Cricetulus griseus
CHO [4] = assay: Cytotoxicity against MDR1 gene transfected CHO cells; type: ADME, cell-based, Cavia porcellus; settings: Cricetulus griseus

COc1cccc2c1C(=O)c1c(O)c3c(c(O)c1C2=O)C[C@@](O)(C(=O)CO)C[C@@H]3O[C@H]1C[C@H](N)[C@H](O)[C@H](C)O1 [DOXORUBICIN]
IC50 (L1210): 0.09 µg/mL (≈ 0.166 µM)
IC50 (P388 [1]): 0.09 µg/mL (≈ 0.166 µM)
IC50 (P388 [2]): 0.55 µg/mL (≈ 1.01 µM)
IC50 (CHO [3]): 0.01 µg/mL (≈ 0.0184 µM)
IC50 (CHO [4]): 0.11 µg/mL (≈ 0.202 µM)
